Columns and labels:
secretion of saliva = test: Salivation-inhibiting effect in the rat (pilocarpine); type: in vivo, rat (male THOM); conditions: iv, urethane anaesthesia, pilocarpine 2 mg/kg s.c., read-out: -log ED50, Salivation inhibition (converted)
Procedure: The secretion of saliva was initiated by subcutaneous administration of 2 mg/kg of pilocarpine. The saliva was absorbed with blotting paper and the surface area covered was measured every 5 minutes by planimetry. The dosage of the substance which reduced the volume of saliva by 50% was determined graphically. For the results see Table II.

[1] = test system: acetylcholine effect on heart rate; test: Inhibition of the effect of acetylcholine on heart rate in guinea pigs; type: in vivo; conditions: Cavia porcellus, iv, 5 min; guinea pig, acetylcholine 10 microgram/kg i.v. and i.a., 5 min after substance; read-out: -log ED50, Heart (heart rate) (converted)
Procedure: (§1) 5 minutes after the administration of the test substance, 10 microgram/kg of acetylcholine were simultaneously injected intravenously and intraarterially into anaesthetised guinea pigs. The heart rate was recorded directly by extracorporeal derivation of the ECG, the expiration resistance according to Konzett-Robler and contraction of the exposed bladder. In order to determine the inhibition of the acetylcholine activity on the organs under investigation, dosage/activity curves were recorded and from them -log ED50 values were determined.

[2] = target: T1, muscarinic receptors (submandibular gland) (Rattus norvegicus, UniProt P08483); test: Binding to muscarinic receptors, 3H-NMS displacement, submandibular gland; set-up: species or system rat (male Sprague-Dawley); conditions: for IC50: 0.3 nM 3H-NMS, 30° C., 45 min, pH 7.4, read-out: IC50 receptor binding test, Submandibular gland (SM); for Selectivity factor [drawing 24]: head is a drawing, values equal IC50 SM / IC50 H
T1 construct: After the heart and submandibular gland and cerebral cortex had been removed; from tissue; host or cells: homogenate of rat submandibular gland
T1 sequence (P08483 whole entry): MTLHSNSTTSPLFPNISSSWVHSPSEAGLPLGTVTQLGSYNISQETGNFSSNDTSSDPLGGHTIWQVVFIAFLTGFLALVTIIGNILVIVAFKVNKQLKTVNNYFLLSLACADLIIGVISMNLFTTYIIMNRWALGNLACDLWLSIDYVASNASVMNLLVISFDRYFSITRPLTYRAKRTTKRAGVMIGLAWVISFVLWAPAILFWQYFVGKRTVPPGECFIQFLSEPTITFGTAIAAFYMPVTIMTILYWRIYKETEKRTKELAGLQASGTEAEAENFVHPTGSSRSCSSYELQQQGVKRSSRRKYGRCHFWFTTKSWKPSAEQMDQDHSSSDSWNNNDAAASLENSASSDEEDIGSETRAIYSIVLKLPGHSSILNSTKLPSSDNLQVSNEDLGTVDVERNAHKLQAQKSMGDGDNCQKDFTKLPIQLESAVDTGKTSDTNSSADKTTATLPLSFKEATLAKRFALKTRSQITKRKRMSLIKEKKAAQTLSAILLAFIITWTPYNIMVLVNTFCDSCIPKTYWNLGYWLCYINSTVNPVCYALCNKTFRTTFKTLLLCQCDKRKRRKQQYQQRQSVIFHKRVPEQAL
Procedure: (§2) The organs were donated by male Sprague-Dawley rats weighing 180-220 g After the heart and submandibular gland and cerebral cortex had been removed, all other steps were carried out in ice-cold Hepes HCl buffer (pH 7.4; 100 millimolar NaCl, 10 millimolar MgCl2). The whole heart was cut up with scissors. All the organs were then homogenised in a Potter apparatus.
(§3) For the binding test the homogenised organs were diluted as follows:
(§4) The homogenised organs were incubated at a given concentration of the radioligand and at a series of concentrations of the non-radioactive test substances in an Eppendorf centrifuge tube at 30° C. Incubation lasted 45 minutes. The radioligand used was 0.3 nanomolar ^3 H-N-methylscopolamine (^3 H-NMS). Incubation was ended by the addition of ice-cold buffer followed by vacuum filtration. The filters were rinsed with cold buffer and their radioactivity was determined. This represents the sum of specific and non-specific binding of ^3 H-NMS. The proportion of non-specific binding was defined as the radioactivity which was bound in the presence of 1 micromolar quinuclidinylbenzylate. Each measurement was taken four times. The IC50 values of the non-labelledtest substances were determined graphically. They represent that concentration of test substance at which the specific binding of ^3 H-NMS to the muscarinic receptors in the various organs was inhibited by 50%.

[3] = test system: acetylcholine effect on bladder; test: Inhibition of the effect of acetylcholine on the bladder in guinea pigs; type: in vivo; conditions: Cavia porcellus, iv, 5 min; guinea pig, acetylcholine 10 microgram/kg i.v. and i.a., 5 min after substance; read-out: -log ED50, Bladder (converted)
Procedure: as §1

[4] = target: muscarinic receptors (cerebral cortex); test: Binding to muscarinic receptors, 3H-NMS displacement, cerebral cortex; set-up: species or system rat (male Sprague-Dawley); conditions: for IC50: 0.3 nM 3H-NMS, 30° C., 45 min, pH 7.4, read-out: IC50 receptor binding test, Cortex (C); for Selectivity factor [drawing 25]: head is a drawing, values equal IC50 C / IC50 H
Procedure: as §2, §3, §4

[5] = target: T2, muscarinic receptors (heart) (Rattus norvegicus, UniProt P10980); test: Binding to muscarinic receptors, 3H-NMS displacement, heart; set-up: species or system rat (male Sprague-Dawley); conditions: for IC50: 0.3 nM 3H-NMS, 30° C., 45 min, pH 7.4, read-out: IC50 receptor binding test, Heart (H); for potency compared with compound D: Table I, receptor binding, same selectivity maintained
T2 construct: The whole heart was cut up with scissors; All the organs were then homogenised in a Potter apparatus; from tissue; host or cells: homogenate of rat whole heart
T2 sequence (P10980 1-466): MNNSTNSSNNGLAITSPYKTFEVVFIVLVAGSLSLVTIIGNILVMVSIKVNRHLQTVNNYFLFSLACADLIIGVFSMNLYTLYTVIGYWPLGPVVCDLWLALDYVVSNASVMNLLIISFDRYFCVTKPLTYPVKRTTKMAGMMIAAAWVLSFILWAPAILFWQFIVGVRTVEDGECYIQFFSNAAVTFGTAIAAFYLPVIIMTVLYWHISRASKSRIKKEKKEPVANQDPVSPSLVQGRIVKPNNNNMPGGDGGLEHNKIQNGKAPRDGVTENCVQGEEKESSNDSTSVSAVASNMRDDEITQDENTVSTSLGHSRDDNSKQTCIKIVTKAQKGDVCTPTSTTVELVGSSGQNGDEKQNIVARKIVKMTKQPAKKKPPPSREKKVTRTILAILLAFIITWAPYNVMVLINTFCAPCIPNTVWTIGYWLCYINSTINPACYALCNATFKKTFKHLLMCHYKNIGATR
Procedure: as §2, §3, §4

M2 = target: T3, M2 (Rattus norvegicus, UniProt P10980); test: M1/M2 selectivity in the rat: reduction of vagal bradycardia (M2); type: in vivo, rat (male THOM); conditions: iv, 5 min, i.v., 5 min before right vagus stimulation, read-out: -log ED50, Heart (vagal bradycardia, M2) (converted)
T3 construct: from tissue; host or cells: heart of the living rat (in vivo)
T3 sequence (P10980 1-466): T2 sequence (P10980 1-466)
Procedure: The method used was described by Hammer and Giachetti (Life Sciences 31, 2991-2998 (1982)). 5 minutes after the intravenous injection of increasing doses of the substance, either the right vagus was electrically stimulated (frequency: 25 Hz; pulse width: 2 ms; duration of stimulus: 30s; voltage: supramaximal) or 0.3 mg/kg of McN-A-343 were intravenously injected into male THOM rats. The bradycardia caused by vagus stimulation and the rise in blood pressure caused by McN-A-343 were determined. The dosage of the substances which reduced either the vagal bradycardia (M2) or the rise in blood pressure (M1) by 50% was determined graphically. For the results see Table II.

M1 = target: T4, M1 (Rattus norvegicus, UniProt P08482); test: M1/M2 selectivity in the rat: reduction of McN-A-343 induced rise in blood pressure (M1); type: in vivo, rat (male THOM); conditions: iv, 5 min, i.v., 5 min before 0.3 mg/kg McN-A-343 i.v., read-out: -log ED50, Blood pressure (M1) (converted)
T4 construct: from tissue; host or cells: living rat (in vivo; sympathetic ganglia by own knowledge)
T4 sequence (P08482 1-460): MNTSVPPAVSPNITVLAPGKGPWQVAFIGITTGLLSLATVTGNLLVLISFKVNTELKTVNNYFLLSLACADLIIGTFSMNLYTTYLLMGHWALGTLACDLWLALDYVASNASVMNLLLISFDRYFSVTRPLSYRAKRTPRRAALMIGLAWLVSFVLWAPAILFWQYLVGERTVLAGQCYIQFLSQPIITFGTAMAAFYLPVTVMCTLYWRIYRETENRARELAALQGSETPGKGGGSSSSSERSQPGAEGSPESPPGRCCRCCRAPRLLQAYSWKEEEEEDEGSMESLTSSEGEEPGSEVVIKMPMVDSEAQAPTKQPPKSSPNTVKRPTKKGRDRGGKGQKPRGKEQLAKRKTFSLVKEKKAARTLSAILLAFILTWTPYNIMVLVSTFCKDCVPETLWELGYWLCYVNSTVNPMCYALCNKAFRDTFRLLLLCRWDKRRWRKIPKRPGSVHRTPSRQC
Procedure: The dosage of the substances which reduced either the vagal bradycardia (M2) or the rise in blood pressure (M1) by 50% was determined graphically. For the results see Table II.

[6] = test system: acetylcholine effect on bronchi; test: Inhibition of the effect of acetylcholine on the bronchi in guinea pigs; type: in vivo; conditions: Cavia porcellus, iv, 5 min; guinea pig, acetylcholine 10 microgram/kg i.v. and i.a., 5 min after substance; read-out: -log ED50, Bronchi (converted)
Procedure: as §1

histamine-H1 receptor = target: T5, histamine-H1 receptor (Rattus norvegicus, UniProt P31390); test: Binding to the histamine-H1 receptor (3H-pyrilamine); conditions: 2 nM 3H-pyrilamine, ambient temperature, 60 min, whole rat brain without cerebellum
T5 construct: whole rat brains were used without the cerebellum; from tissue; host or cells: membranes of whole rat brain without cerebellum
T5 sequence (P31390 whole entry): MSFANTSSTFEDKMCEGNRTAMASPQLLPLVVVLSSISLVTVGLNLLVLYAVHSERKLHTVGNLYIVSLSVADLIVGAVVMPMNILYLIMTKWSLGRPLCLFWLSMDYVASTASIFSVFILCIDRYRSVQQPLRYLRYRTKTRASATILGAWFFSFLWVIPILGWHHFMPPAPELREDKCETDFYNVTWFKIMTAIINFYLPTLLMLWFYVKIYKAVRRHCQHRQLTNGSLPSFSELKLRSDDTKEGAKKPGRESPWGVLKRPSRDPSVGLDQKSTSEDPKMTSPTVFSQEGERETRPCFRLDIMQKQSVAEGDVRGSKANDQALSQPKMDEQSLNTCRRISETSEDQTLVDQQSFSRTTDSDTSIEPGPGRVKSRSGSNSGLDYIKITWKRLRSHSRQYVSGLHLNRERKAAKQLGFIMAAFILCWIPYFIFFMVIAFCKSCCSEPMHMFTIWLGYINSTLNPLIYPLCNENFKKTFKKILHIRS
Procedure: In these tests, whole rat brains were used without the cerebellum. The tissue was homogenised in a phosphate buffer pH 7.5 according to Sorensen using the Ultra-Turrax. The homogenised material was then washed twice and centrifuged at 50,000×g. The pellet was taken up in a dilution, based on the starting tissue, of 1:100. […] The reactions were also ended by vacuum filtration and the radioactivity of the filters was measured. The non-specific binding was determined using mixtures which contained 10 micromolar triprolidine. The results were evaluated as in the studies of binding to the imipramine receptor.

[7] = Water solubility of the monohydrochloride; type: physicochemical

Compound | ED50 (secretion of saliva) [µmol/kg] | ED50 [1] [µmol/kg] | IC50 [2] [nM] | Selectivity factor [drawing 24] [2] | ED50 [3] [µmol/kg] | IC50 [4] [nM] | Selectivity factor [drawing 25] [4] | IC50 [5] [nM] | potency compared with compound D [5] | ED50 (M2) [µmol/kg] | ED50 (M1) [µmol/kg] | ED50 [6] [µmol/kg] | IC50 (histamine-H1 receptor) [nM] | water solubility (monohydrochloride) [7]
O=C1Nc2cccnc2N(CCCCCCN2CCCCC2)c2ccccc21 [A, 5,11-dihydro-11-[6-(1-piperidinyl)hexyl]-6H-pyrido[2,3-b][1,4]benzodiazepin-6-one] | 0.447 | 0.0661 | 10 | 16.7 | 1.29 | 4 | 6.7 | 0.6 | considerably higher potency | 0.011 | 0.295 | 0.0851 | – | –
CCN(CC)CC1CCCCN1CCCCN1c2ccccc2C(=O)Nc2cccnc21 (stereo not shown) [B, 11-[4-[2-[(diethylamino)methyl]-1-piperidinyl]butyl]-5,11-dihydro-6H-pyrido[2,3-b][1,4]benzodiazepin-6-one] | 3.16 | 0.468 | 80 | 40 | > 10 | 20 | 10 | 2 | considerably higher potency | 0.0398 | 0.676 | 0.646 | 9000 | –
CCN(CC)CC1CCCCN1CC#CCN1c2ccccc2C(=O)Nc2cccnc21 (stereo not shown) [C, 11-[4-[2-[(diethylamino)methyl]-1-piperidinyl]but-2-ynyl]-5,11-dihydro-6H-pyrido[2,3-b][1,4]benzodiazepin-6-one] | 7.59 | 0.245 | 700 | 38.9 | > 2.29 | 200 | 11.1 | 18 | considerably higher potency | 0.0302 | 1.1 | 1.58 | – | –
CCN(CC)CC1CCCCN1CC(=O)N1c2ccccc2C(=O)Nc2cccnc21 (stereo not shown) [D, 11-[[2-[(diethylamino)methyl]-1-piperidinyl]acetyl]-5,11-dihydro-6H-pyrido[2,3-b][1,4]benzodiazepin-6-one, reference compound] | 10 | – | – | – | – | – | – | – | – | – | – | – | – | –
Cl.O=C1Nc2ccccc2N(CCCCCCN2CCCCCC2)c2ccccc21 [Example 16, 5,10-Dihydro-5-[6-(hexahydro-1H-1-azepinyl)hexyl]-11H-dibenzo[b,e][1,4]diazepin-11-one hydrochloride] | – | – | – | – | – | – | – | – | – | – | – | – | – | sparingly soluble in water
CN1[C@@H]2CC[C@H]1C[C@@H](OC(=O)C(CO)c1ccccc1)C2 (stereo partly shown) [F, atropine, reference compound] | – | 0.02 | – | – | – | – | – | – | – | – | – | – | – | –

Source: patent US5006522A, “Condensed diazepinones, processes for preparing them and pharmaceutical compositions containing these compounds” (Karl Thomae GmbH, priority 1988, dated 1991)
